Read-outs that look alike come from different tables or passages of the source.
System: BT474 cells
Assay: Acetate and glucose incorporation into lipids in HER2+ BT474 breast cancer cell line
Assay type: cell-based
Conditions: Homo sapiens
Procedure: Incorporation of radiolabeled glucose or acetate in total lipids was measured according to published methods (Haystead and Hardie, 1986). HepG2 cells (80% confluent in 12 wells plates) were starved overnight in MEM Alpha, the medium was then changed with DMEM medium containing 0.1 g/L glucose 10% FBS and 5 μM insulin and 1 μCi 3-[^3H] D-glucose or 1 μCi [^3H]-acetate in addition to different concentrations of each compound. After incubation for 1 hour at 37° C., 5% CO2, the cells were washed with ice cold PBS and detached by treating with 100 μl trypsin for 10 min then 1 ml of ice cold PBS was added. The cells suspension was then sonicated for 3 times in 30 seconds intervals and kept on ice. From each well 1 ml of cell lysate was added to a 4 ml scintillation vial and 2 ml of MicroScint-E was added. The vials were mixed thoroughly then centrifuged for 30 min at 3000 rpm and the ^3H radioactivity was measured by liquid scintillation counting.
T474 cells were seeded in 6 well plates in 10% FBS 4.5 g/L glucose DMEM at a density of 400,000 cells/well. After 24 hours the media was changed with 0.1 g/L glucose DMEM containing different concentrations of HS-106. […] To each fraction, 1 ml of 25 g/L Butyl PBD dissolved in Toluene was added and radioactivity was measured by scintillation counting.

Cc1sc2ncnc(NC3CCN(Cc4ccccc4)C3)c2c1C (racemic) [HS-106, N-(1-benzylpyrrolidin-3-yI)-5,6-dimethylthieno[2,3-d]pyrimidin-4-amine]
IC50 (BT-474, acetate as tracer, read-out: IC50, acetate incorporation into total lipids): ~1500 nM
IC50 (BT-474, glucose as tracer, read-out: IC50, glucose incorporation into total lipids): 1660 nM

Source: patent US11679111B2, “Fatty acid synthase inhibitors” (priority 2016, dated 2023)
